Data taken from patent publication US11865098B1, “Methods and compositions for treating excessive sleepiness” (Axsome Malta Ltd., priority 2017, dated 2024).

Tested on: patients with narcolepsy type 1 or type 2
Test: MWT, 12-week phase 3 study in narcolepsy
Type: in vivo, human
Experimental: The MWT is an objective test used to measure how alert a subject is during the day. The test consists of four sleep trials with two hours in between the trials. The first trial is performed 1.5-3 hours after the subject's normal wake-up time. Sensors are placed on the head, face, and chin to detect when the subject is asleep and awake during the test. The subject sits quietly in bed with his or her back and head supported by a pillow and is asked to sit still and look straight ahead while trying to stay awake as long as possible. Each trial lasts 40 minutes or until the subject is asleep for 90 seconds. Between trials, the subject stays out of bed and occupies himself or herself to remain awake. Falling asleep in an average of less than eight minutes is considered abnormal. About 40-60% of subjects with normal sleep stay awake for the entire 40 minutes of all four trials.
The study was a 12-week, double-blind, randomized, placebo-controlled, parallel-group study. Patients were randomized (1:1:1:1) to receive placebo or APC 75, 150, or 300 mg; randomization was stratified by the presence or absence of cataplexy.
Key inclusion criteria included adults 18-75 years old, inclusive, with a diagnosis of narcolepsy type 1 or type 2 according to ICSD-3 (American Academy of Sleep Medicine. The International Classification of Sleep Disorders—Third Edition (ICSD-3). Darien, IL: American Academy of Sleep Medicine; 2014) or DSM-5 (American Psychiatric Association. Diagnostic and Statistical Manual of Mental Disorders Fifth Edition (DSM-5). Arlington, VA: American Psychiatric Association; 2013) criteria, baseline mean sleep latency <25 minutes on the first 4 trials of a 5-trial, 40-minute Maintenance of Wakefulness Test (MWT) and baseline Epworth Sleepiness Scale (ESS) (Johns, Sleep 14(6):540 (1991)) score ≥10, usual nightly total sleep time ≥6 hours, and body mass index between 18 and 45 kg/m^2.
Co-primary endpoints were change from baseline to week 12 in MWT mean sleep latency and ESS score. The key secondary endpoint was the percentage of patients who reported improvement on the Patient Global Impression of Change (PGI-C) (Guy, ECDEU assessment manual for psychopharmacology, revised. US Department of Health, Education, and Welfare publication (ADM 76-338). Rockville, MD: National Institute of Mental Health; 1976) at week 12. Other secondary and exploratory endpoints included changes on function and quality-of-life and changes in the number of cataplexy attacks per week. Safety evaluation included adverse events, laboratory tests, and vital signs.
Efficacy analyses were based on the modified intent-to-treat population (mITT), defined as all patients who were randomized, received at least 1 dose of study drug, and had baseline and at least 1 post-baseline evaluation of both MWT and ESS. MWT and ESS were analyzed using a mixed-effect repeated measures (MMRM) model. PGI-C was analyzed using a chi-square test. A fixed hierarchical testing procedure was used to correct for multiplicity, starting with the highest dose of APC for the co-primary endpoints and the key secondary endpoint; testing proceeded with each subsequent lower doses.

[1] = Combined JZP-110, Week 12, mITT

## NC(=O)OC[C@H](N)Cc1ccccc1 [JZP-110, (R)-2-amino-3-phenylpropyl carbamate]
300 mg, Week 1, mITT
  MWT mean sleep latency increase from baseline >=15 minutes, n subjects: 11
  MWT mean sleep latency increase from baseline >=20 minutes, % of subjects: (32.0) %
  MWT mean sleep latency increase from baseline >=20 minutes, n subjects: 8
  MWT mean sleep latency increase from baseline >=25 minutes, % of subjects: (24.0) %
  MWT mean sleep latency increase from baseline >=25 minutes, n subjects: 6
  MWT mean sleep latency increase from baseline >=30 minutes, % of subjects: (20.0) %
  MWT mean sleep latency increase from baseline >=30 minutes, n subjects: 5
300 mg, Week 4, mITT
  MWT mean sleep latency increase from baseline >=5 minutes, % of subjects: (69.2) %
  MWT mean sleep latency increase from baseline >=5 minutes, n subjects: 36
  MWT mean sleep latency increase from baseline >=10 minutes, % of subjects: (53.8) %
  MWT mean sleep latency increase from baseline >=10 minutes, n subjects: 28
  MWT mean sleep latency increase from baseline >=15 minutes, % of subjects: (36.5) %
  MWT mean sleep latency increase from baseline >=15 minutes, n subjects: 19
  MWT mean sleep latency increase from baseline >=20 minutes, % of subjects: (25.0) %
  MWT mean sleep latency increase from baseline >=20 minutes, n subjects: 13
  MWT mean sleep latency increase from baseline >=25 minutes, % of subjects: (17.3) %
  MWT mean sleep latency increase from baseline >=25 minutes, n subjects: 9
  MWT mean sleep latency increase from baseline >=30 minutes, % of subjects: (13.5) %
  MWT mean sleep latency increase from baseline >=30 minutes, n subjects: 7
300 mg, Week 12, mITT
  MWT mean sleep latency increase from baseline >=5 minutes, % of subjects: (60.0) %
  MWT mean sleep latency increase from baseline >=5 minutes, n subjects: 24
  MWT mean sleep latency increase from baseline >=10 minutes, % of subjects: (50.0) %
  MWT mean sleep latency increase from baseline >=10 minutes, n subjects: 20
  MWT mean sleep latency increase from baseline >=15 minutes, % of subjects: (37.5) %
  MWT mean sleep latency increase from baseline >=15 minutes, n subjects: 15
  MWT mean sleep latency increase from baseline >=20 minutes, % of subjects: (27.5) %
  MWT mean sleep latency increase from baseline >=20 minutes, n subjects: 11
  MWT mean sleep latency increase from baseline >=25 minutes, % of subjects: (15.0) %
  MWT mean sleep latency increase from baseline >=25 minutes, n subjects: 6
  MWT mean sleep latency increase from baseline >=30 minutes, % of subjects: (7.5) %
  MWT mean sleep latency increase from baseline >=30 minutes, n subjects: 3
150 and 300 mg, week 12, mITT
  MWT mean sleep latency relative to placebo: significantly increased MWT mean sleep latency relative to placebo
Combined JZP-110, Week 1, mITT
  MWT mean sleep latency increase from baseline >=5 minutes, % of subjects: (53.9) %
  MWT mean sleep latency increase from baseline >=5 minutes, n subjects: 41
  MWT mean sleep latency increase from baseline >=10 minutes, % of subjects: (42.1) %
  MWT mean sleep latency increase from baseline >=10 minutes, n subjects: 32
  MWT mean sleep latency increase from baseline >=15 minutes, % of subjects: (27.6) %
  MWT mean sleep latency increase from baseline >=15 minutes, n subjects: 21
  MWT mean sleep latency increase from baseline >=20 minutes, % of subjects: (17.1) %
  MWT mean sleep latency increase from baseline >=20 minutes, n subjects: 13
  MWT mean sleep latency increase from baseline >=25 minutes, % of subjects: (9.2) %
  MWT mean sleep latency increase from baseline >=25 minutes, n subjects: 7
  MWT mean sleep latency increase from baseline >=30 minutes, % of subjects: (6.6) %
  MWT mean sleep latency increase from baseline >=30 minutes, n subjects: 5
Combined JZP-110, Week 4, mITT
  MWT mean sleep latency increase from baseline >=5 minutes, % of subjects: (57.6) %
  MWT mean sleep latency increase from baseline >=5 minutes, n subjects: 87
  MWT mean sleep latency increase from baseline >=10 minutes, % of subjects: (40.4) %
  MWT mean sleep latency increase from baseline >=10 minutes, n subjects: 61
  MWT mean sleep latency increase from baseline >=15 minutes, % of subjects: (26.5) %
  MWT mean sleep latency increase from baseline >=15 minutes, n subjects: 40
  MWT mean sleep latency increase from baseline >=20 minutes, % of subjects: (15.9) %
  MWT mean sleep latency increase from baseline >=20 minutes, n subjects: 24
  MWT mean sleep latency increase from baseline >=25 minutes, % of subjects: (9.3) %
  MWT mean sleep latency increase from baseline >=25 minutes, n subjects: 14
  MWT mean sleep latency increase from baseline >=30 minutes, % of subjects: (4.6) %
  MWT mean sleep latency increase from baseline >=30 minutes, n subjects: 7
[1]
  MWT mean sleep latency increase from baseline >=5 minutes, % of subjects: (52.9) %
  MWT mean sleep latency increase from baseline >=5 minutes, n subjects: 72
  MWT mean sleep latency increase from baseline >=10 minutes, % of subjects: (39.0) %
  MWT mean sleep latency increase from baseline >=10 minutes, n subjects: 53
  MWT mean sleep latency increase from baseline >=15 minutes, % of subjects: (29.4) %
  MWT mean sleep latency increase from baseline >=15 minutes, n subjects: 40
  MWT mean sleep latency increase from baseline >=20 minutes, % of subjects: (17.6) %
  MWT mean sleep latency increase from baseline >=20 minutes, n subjects: 24
  MWT mean sleep latency increase from baseline >=25 minutes, % of subjects: (8.1) %
  MWT mean sleep latency increase from baseline >=25 minutes, n subjects: 11
  MWT mean sleep latency increase from baseline >=30 minutes, % of subjects: (2.9) %
  MWT mean sleep latency increase from baseline >=30 minutes, n subjects: 4
All doses, as early as week 1
  MWT mean sleep latency, effect at week 1: Statistically significant effects
Over the 12 weeks of the study
  Tolerance to the wake-promoting effects: no apparent tolerance to the wake-promoting effects
